Experimental data from patent US20140349314A1, “METHODS AND COMPOSITIONS FOR DETECTING AND TREATING INFLAMMATORY DISEASE” (Beth Israel Deaconess Medical Center, Inc., priority 2010, published 2014).
Where a SMILES comes first, the peptide text is derived from it. The star is where a group is joined. Cbz = O=C(OCc1ccccc1)*

What was measured:
[1] = test system: human LX-2 hepatic stellate cells (HSC); test: Fibrosis-related transcript levels by quantitative RT-PCR in LX-2 HSC incubated with T cell-derived MP; assay type: cell-based; settings: 24 hours
Procedure: Effect of S100 T Cell-MP on Fibrosis-Related Gene Expression by HSC Fibrosis related transcripts were measured from 200×10^3 serum-starved human LX-2 HSC 24 hours after addition of 1×10^3 or 50×10^3 S100-MP from Jurkat T cells using quantitative RT-PCR. S10-MP, plain medium, and ST alone served as controls. MP were obtained from PHA-activated and/or apoptotic (ST-treated) Jurkat T cells. After T cell apoptosis induction, significant changes in fibrosis-related transcripts were found with 50×10^3 S100-MP, while equivalent amounts of S10-MP had no effect (FIG. 6). […] Similar results were obtained when S100-MP were incubated with freshly isolated primary rat HSC. Here the human S100-MP induced MMP-3 even 9-fold (FIG. 7).
For induction of apoptosis T cells were cultured in RPMI and treated with 4 μM/mL Staurosporine (ST, Cell Signaling Technology®, Danvers, Mass.) for 4 hours. […]
(§1) HSC (200×10^3/well) were seeded into six-well cell culture plates and serum-starved as above. […] Relative transcript levels were quantified by real-time RT-PCR on a LightCycler 1.5 instrument (Roche, Mannheim, Germany) using the TaqMan methodology as described previously (52). […] Experiments were performed in triplicates and values represent means±SD, being expressed as arbitrary units relative to the housekeeping gene beta2-microglobulin.

HSC [2] = test: Apoptosis assay (Annexin V / 7-AAD FACS) in HSC; assay type: cell-based, human
Procedure: It was reported earlier that MP derived from macrophages could trigger apoptosis in recipient cells.
24 hrs serum-starved HSC were incubated with S100-MP for 24 hrs. Apoptosis and necrosis induction by S100-MP were assessed by FACS analysis for Annexin V and 7-aminoactinomycin D staining (both from eBioscience™, San Diego, Calif., USA) on a LSR2 FACS analyzer with CELLQuest software (Becton Dickinson, San Jose, Calif.).

[3] = test system: MP-stimulated MMP-3 mRNA expression in HSC; test: Signaling pathway inhibition: MP-stimulated MMP-3 mRNA expression in HSC; assay type: cell-based, human; settings: for inhibition of MP-stimulated MMP-3 induction: vs untreated S100-MP stimulated controls, SB 5 μg/mL, MG 15 μg/mL
Procedure: In order to define major signaling pathways that lead to MMP-induction by S100-MP, we used specific inhibitors of several kinases. MP-stimulated MMP-3 mRNA expression served as fibrolytic read-out.
Pathway inhibition experiments were performed in 24 hour serum-starved HSC. […] The proteasome inhibitor MG132 (Rockland Inc., USA) was used to block NFκB nuclear translocation and activity.

HSC [4] = test: MMP transcript levels in HSC after S100-MP with or without TNFα; assay type: cell-based, human
Procedure: FIG. 13C is a graph showing mRNA transcript levels of the indicated MMP gene in HSC after addition of S100-MP with or without TNFα (10 ng/mL) for 24 h (*p<0.05, **p=0.04, ***p=0.001).
It remained to be shown what cell membrane molecule(s) or receptor(s) mediate(s) attachment and uptake of S100-MP by HSC. […] Assuming that ICAM-1 on the recipient HSC is engaged by CD11a/CD18 on the S100-MP, any treatment of HSC that increases CD54 should enhance MP uptake and subsequent fibrolytic activation of HSC. We therefore incubated HSC with 10 ng/mL TNF-α, a strong inducer of CD54, which induced a robust (>10-fold) upregulation of CD54 after 24 hrs (FIG. 13B). This led to a further significant MP-induced increase (by 40%) of MMP-3 mRNA expression in the induced HSC as compared to untreated HSC (FIG. 13C). […] For MMP-3 the effect of combined TNF-α and MP treatment was overadditive as compared to the added effects of TNF-α or S100-MP alone (FIG. 13C).

CD54 (ICAM-1) on HSC = test: ICAM-1 (CD54) upregulation on HSC by TNFα (flow cytometry); assay type: cell-based, human
Procedure: TNFα (PEPROTECH®, Rocky Hill, N.J., USA) was added to HSC cultures, and ICAM-1 expression assessed after 2, 4 and 24 hrs by flow cytometric analysis using anti-ICAM-1-FITC (eBioscience™, San Diego, Calif., USA) on a LSR2 FACS analyzer as described above.

[5] = test system: TGFβ1 (5 ng/mL)-activated HSC; test: Fibrosis-related transcript levels in TGFβ1-activated HSC incubated with S100-MP; assay type: cell-based, human; settings: 5 ng/mL TGFβ1
Procedure: FIG. 9 is a series of graphs showing mRNA transcript levels of the indicated gene in TGFβ1 (5 ng/mL)-activated HSC when incubated with the indicated amount of S100-MP for 24 hours. All experiments were performed at least twice with n=3-4 per group. Results (means±SD) are expressed as arbitrary units relative to beta2-microglobulin mRNA; *p<0.05 vs. medium control.
Human HSC were exposed to 5 ng/mL TGFβ1, which elicits a strong fibrogenic response. […] Thus TGFβ1 enhanced HSC procollagen α1(I) expression 2.7-fold, which after MP addition was reduced by almost 40%, and MP increased the expression of MMP-3 and MMP-13 almost 2.5- and 2.1-fold, respectively.
as §1, with “above. HSC were then incubated with 1×10^3 or 50×10^3 S10-MP or S100-MP for 24 hours, followed by total RNA extraction from cells using TRIzol (Invitrogen, Carlsbad, Calif.). One μg of RNA was reverse-transcribed using random primers and Superscript RNase H-reverse transcriptase (Invitrogen).” for “above.”

Molecule: CN[C@@H]1C[C@H]2O[C@@](C)([C@@H]1OC)n1c3ccccc3c3c4c(c5c6ccccc6n2c5c31)C(=O)NC4 [ST, staurosporine]
- effect on fibrosis-related gene expression (MMPs, TIMP-1, procollagen α1(I)) in HSC, in words [1]: induced only MMP-9
- apoptosis or necrosis induction in HSC, in words (HSC [2]; 24 hours of incubation, ST 0.04 μM/mL): induced apoptosis
- late apoptosis of HSC (HSC [2]; 24 hours, ST alone): ≤ 10%
- necrosis of HSC (HSC [2]; 24 hours, ST alone): up to 14%
- higher percentage of late apoptotic HSC compared to S100-MP (HSC [2]; ST 0.04 μM/mL, 7-AAD/Annexin FACS): 7 fold

Molecule: CC(C)C[C@@H](C=O)NC(=O)[C@H](CC(C)C)NC(=O)[C@H](CC(C)C)NC(=O)OCc1ccccc1 [MG132] (Cbz-Leu-Leu-Leu-aldehyde)
- inhibition of MP-stimulated MMP-3 induction [3]: 50%

Molecule: TNF-α
- further MP-induced increase of MMP-3 mRNA in TNF-α-induced HSC as compared to untreated HSC (HSC [4]; TNF-α 10 ng/mL plus S100-MP, 24 h): 40%
- effect of TNF-α alone on HSC MMP-3 mRNA (HSC [4]; TNF-α alone): not capable to enhance
- effect of TNF-α alone on HSC MMP-9 and MMP-13 expression (HSC [4]; TNF-α alone): modestly induced
- effect of combined TNF-α and MP treatment on MMP-3 compared to added single effects (HSC [4]; TNF-α plus S100-MP): overadditive
- upregulation of CD54 on HSC (CD54 (ICAM-1) on HSC; 10 ng/mL TNF-α, after 24 hrs): > 10 fold
- upregulation of CD54 on HSC (CD54 (ICAM-1) on HSC; TNFα 10 ng/mL for 0, 4, and 24 hours): 40%

Molecule: TGFβ1: profibrogenic cytokine used to activate HSC
- enhancement of HSC procollagen α1(I) expression [5]: 2.7 fold

Molecule: N#CC(=C(/N)Sc1ccccc1N)/C(C#N)=C(\N)Sc1ccccc1N [U0126]
- effect on MP-stimulated MMP-3 mRNA, in words [3]: Complete abrogation

Molecule: C[S+]([O-])c1ccc(-c2nc(-c3ccncc3)c(-c3ccc(F)cc3)[nH]2)cc1 (stereo not drawn) [SB203580]
- inhibition of MP-stimulated MMP-3 induction [3]: 50%
